This note sets out measurements from patent US11096910B2, “Metabolically robust analogs of CYP-eicosanoids for the treatment of cardiac disease” (OMEICOS THERAPEUTICS GMBH, priority 2015, dated 2021).

Data set [1] deals with male B16 mice. The data set is described as follows: Atrial fibrillation induced by programmed electrical stimulation in a mouse model of moderate cardiac hypertrophy. It is filed as in vivo. As for the experimental part:
Study design: To gain insight into in-vivo effect of synthetic 17,18-EEQ-agonists, atrial fibrillation studies were performed in male B16 mice as described in Westphal, C. et al., PLoS ONE. 2013, 8(8): e73490. Briefly, moderate cardiac hypertrophy was induced by continuous infusion of isoproterenol via subcutaneously implanted osmotic minipumps (Alzet) at a rate of 40 mg/kg/d for two weeks. After two weeks of treatment, ECG and electrophysiological data were recorded. Programmed electrical stimulation (PES) was performed in the right atrium or right ventricle using a digital electrophysiology lab (EP Tracer; CardioTek) to determine refractory periods and arrhythmia inducibility. Atrial arrhythmias were defined as fast (>800 bpm) electrical activity in the right atrial electrograms, with ECG P waves different to normal sinus rhythm and subsequent fast, but physiological activation of the ventricles (ECG R wave and right ventricular electrograms similar to normal sinus rhythm). Atrial fibrillation was defined as fast, irregular activity in the right atrial electrograms with irregular conduction to the ventricles (high variability of R—R intervals). Ventricular arrhythmias were defined by fast (>800 bpm) activity originating from the ventricular myocardium (change in morphology of ECG R waves and local right ventricular electrograms compared to normal sinus rhythm). During inhalation anesthesia with isoflurane (2% with 360 ml/min air flow; Univentor 400 anesthesia unit), the animals' body temperature was kept constant at 37° C. using a homeothermic blanket control unit (Hugo Sachs Elektronik, Harvard Apparatus) with rectal temperature control. After preparation of the right jugular vein, a 2 French octapolar electrophysiology catheter (CIB'ER mouse cath; NuMed) was placed in the right heart, including atrium and ventricle. PES was performed using a standardized protocol that included trains of 10 basal stimuli (S1) followed by up to 3 extra stimuli (S2-S4), delivered with a coupling interval decreasing in steps of 5 ms until ventricular or atrial refractoriness was reached. The stimulation procedures were repeated at three different basal cycle lengths (100 ms, 90 ms, 80 ms) with each animal. Occurrence and duration of inducible arrhythmias were documented. Only stimulation protocols with reproducible arrhythmias longer than five consecutive beats in ventricle and episodes longer than 350 ms in the atria were considered positive. “Arrhythmia inducibility” was calculated as the percentage of effective (positive) out of total protocols applied. Accordingly, the arrhythmia inducibility of individual animals could take a value of 0, 33, 66 or 100%. […]

Data set [2] can be described thus: Plasma pharmacokinetics after single intravenous and oral administration. The following applies: male, C57BL/6, mouse, in vivo. The arrangement: species or system male C57BL/6 mice. As for the experimental part: To gain insight into pharmacological properties of synthetic 17,18-EEQ agonists pharmacokinetic studies were performed with two selected compounds (Comp-02 and Comp-06). These compounds were pharmacologically evaluated in plasma after single intravenous and oral administration. Therefore, male C57BL/6 mice (Janvier Labs (France), n=12 per group) were administered to the test item at a dose of 2 mg/kg (i.v.) and 8 mg/kg (p.o.), respectively. Intravenous application of Comp-02 (sodium salt in isotonic salt solution) and Comp-06 (free acid in DMSO/PEG400 20:80) was performed via the tail vein, and for oral administration via gavage. […] Blood sampling was of 100 μl were obtained at two different time point for each mouse (0.083/2 h, 0.25/4 h, 0.5/8 h and 1/24 h). Biological samples were subjected to an extraction procedure (40 μl Acetonitril+22.4 μl sample, shaking, 10 min centrifugation at 6000×g at room temperature, dilution of 50 μl supernatant 1:1 with water). For analysis 20 μl of sample were injected into the LC-MS, Accela 1250 UHPLC system, Accela Open Autosampler, Q-Exactive mass spectrometer (Thermo Fisher Scientific). Appropriate samples were used as controls: zero sample, calibration standard and QC sample. The pharmacokinetic analysis were performed applying a non-compartment model using the Kinetica 5.0 software (Thermo Scientific, Waltham, USA). All given parameters were obtained by trapezoid area calculation.

Data set [3] has as its system isolated mouse hearts of 12-14 week old male C57BL6/n animals. The data set is described as follows: Ischemia-reperfusion of isolated Langendorff-perfused mouse hearts (Example 11). As for the experimental part:
Study design: To gain insight into the cardioprotective effects of synthetic 17,18-EEQ-agonists, ischemia-reperfusion studies were performed in isolated mouse hearts of 12-14 week old male C57BL6/n animals. Briefly, mice were anesthetized with i.p. injected pentobarbital/heparin, hearts were rapidly removed and perfused in a Langendorff apparatus. Excised hearts were put in ice-cold Krebs-Henseleit buffer and aortas were cannulated. Modified Krebs-Henseleit buffer for retrograde perfusion contained 118 mM NaCl, 3.5 mM KCl, 1.3 mM MgSO4, 2.5 mM CaCl2, 24.7 mM NaHCO3, 1.4 mM KH2PO4 and 11 mM glucose, was aerated with 95% O2-5% CO2 and kept at constant temperature of 37° C. and pH 7.3. Perfusion pressure was adjusted to 80 mmHg and a latex balloon connected to a pressure transducer was inserted in the left ventricle through the left atrium. Hearts were perfused with buffer for a 15 minutes stabilisation period, followed by 10 minutes perfusion with either the agonistic analog Comp-02 (100 nM) or vehicle (0.9% NaCl in water). Afterwards hearts were subjected to 35 minutes global no-flow ischemia followed by 40 minutes of reperfusion. Compound or vehicle perfusion was kept constant during the reperfusion time. To analyse recovery of contractile function the left ventricular developed pressure (LVdP) at different time points during reperfusion was measured and expressed as percentage of pre-ischemic LVdP. Exclusion criteria for the hearts were: (i) a LVdP below 60 mmHg at the end of the stabilisation phase (baseline measurement), (ii) a heart rate below 260 bpm, (iii) coronary flow below 1.5 or over 4 ml/min and finally (iv) severe sustained arrhythmias during the stabilisation phase. The results are presented in FIG. 1 and expressed as mean±SEM percentage of pre-ischemic LVdP. Data were analysed by two-tailed unpaired Student's t test and considered significant if p<0.05*.

[4] abbreviates: single i.v. injection 2 mg/kg, vs vehicle.

In the case of `CNC(=O)C(=O)NCCCC/C=C\CCCCCCCOCC(=O)O` [Comp-02, 2-((13-(2-(methylamino)-2-oxoacetamido)tridec-8(Z)-en-1-yl)oxy)acetic acid], the “obvious negative side effects” value in data set [1] (single i.v. bolus injection, 2 mg/kg body weight) was “did not induce any obvious negative side effects”. Also, in data set [1] (setting [4]), the “reduction of the inducibility of sustained arrhythmia episodes” value stood at 62%, the “severity of induced atrial fibrillation episodes” value is “significantly reduced” and the “sum of totally induced atrial fibrillation episodes (atrial fibrillation burden)” value was “reduced significantly”. Also, in data set [2] (iv, 2 mg/kg), the AUC(0-inf) was 524 ng·h/mL and the bioavailability worked out at 100%. In addition, in data set [2] (po, 8 mg/kg), the AUC(0-inf) was 1820 ng·h/mL; the “Cmax, maximal observed plasma concentration” value worked out at 903.8 ng/mL; the Tmax is 18 min; the bioavailability was found to be 87%. Besides, in data set [2] (po, 8 mg/kg, Cmax, maximal observed plasma concentration), the Cmax amounted to 903 ng/mL. Moreover, the “functional recovery, LVdP as percentage of pre-ischemic LVdP” value in data set [3] (100 nM, 10 minutes reperfusion) was determined as 18%. Further, the “functional recovery, LVdP as percentage of pre-ischemic LVdP” value in data set [3] (100 nM, 40 minutes reperfusion) was found to be 59%. In data set [3] (100 nM, vs control group), the “post-ischemic recovery of contractility function, in words” value was “significantly improved post-ischemic recovery of contractility function”. Also, the “obvious negative side effects” value in data set [3] (continuous infusion of 100 nM) is “did not induce any obvious negative side effects”.

Broadly, the AUC(0-inf) is total exposure, with the tail of the curve extrapolated. A low value points to low exposure. One may read the bioavailability as the share of a dose that reaches the circulation, judged against a reference dose that is usually intravenous. For orientation: Tmax means the time at which the peak concentration occurs. A word on the Cmax: it is the peak of the concentration-time curve.
